Key:
Type in all cases: functional
[1] = Murine tumor cell selectivity was measured as zone unit differential between (C38) colon adenocarcinoma and (CFU) normal bone marrow in disk diffusion soft agar colony formation assay at a concentration of 19 ug/disk
[2] = Human tumor selectivity was measured as zone unit differential between (H116) colon tumor and (CEM) lymphocytic leukemia in disk diffusion soft agar colony formation assay at a concentration of 19 ug/disk
[3] = Human tumor selectivity was measured as zone unit differential between (H125) lung small cell carcinoma and (CEM) lymphocytic leukemia in disk diffusion soft agar colony formation assay at a concentration of 19 ug/disk
[4] = Murine tumor cell selectivity was measured as zone unit differential between ([…]) murine cell line and (CFU) normal bone marrow in disk diffusion soft agar colony formation assay at a concentration of 19 ug/disk
[5] = Murine tumor cell selectivity was measured as zone unit differential between (C38) colon adenocarcinoma and ([…]) murine cell line in disk diffusion soft agar colony formation assay at a concentration of 19 ug/disk
[6] = Murine tumor cell selectivity was measured as zone unit differential between (C38) colon adenocarcinoma and (CFU) normal bone marrow in disk diffusion soft agar colony formation assay at a concentration of 1 ug/disk
[7] = Human tumor selectivity was measured as zone unit differential between (H116) colon tumor and (CEM) lymphocytic leukemia in disk diffusion soft agar colony formation assay at a concentration of 1 ug/disk
[8] = Murine tumor cell selectivity was measured as zone unit differential between ([…]) murine cell line and (CFU) normal bone marrow in disk diffusion soft agar colony formation assay at a concentration of 1 ug/disk
[9] = Murine tumor cell selectivity was measured as zone unit differential between (C38) colon adenocarcinoma and ([…]) murine cell line in disk diffusion soft agar colony formation assay at a concentration of 1 ug/disk
[10] = Human tumor selectivity was measured as zone unit differential between (H125) lung small cell carcinoma and (CEM) lymphocytic leukemia in disk diffusion soft agar colony formation assay at a concentration of 1 ug/disk

## CC[C@H]1C=CCC[C@@]2(C[C@@H]3CC[C@@H]4[C@H](C(=O)OC/C=C/c5ccccc5)[C@]5(CCC[C@@H](C)O5)NC(=[N+]34)N2)O1.[Cl-]
[1]
  Selectivity: 100
[2]
  Selectivity: 200
[3]
  Selectivity: 200
[4]
  Selectivity: -50
[5]
  Selectivity: 150

## CC[C@H]1C=CCC[C@@]2(C[C@@H]3CC[C@@H]4C[C@]5(CCC[C@@H](C)O5)NC(=[N+]43)N2)O1.[Cl-]
[1]
  Selectivity: 0
[2]
  Selectivity: 0
[3]
  Selectivity: 150
[4]
  Selectivity: 350
[5]
  Selectivity: -350

## C=CCOC(=O)[C@H]1[C@H]2CC[C@H]3C[C@@]4(CCC=C[C@H](CC)O4)NC(=[N+]32)N[C@@]12CCC[C@@H](C)O2.[Cl-]
[6]
  Selectivity: 450
[7]
  Selectivity: 0
[8]
  Selectivity: 100
[9]
  Selectivity: 350
[10]
  Selectivity: 0

## CC[C@H]1C=CCC[C@@]2(C[C@@H]3CC[C@@H]4[C@H](C(=O)O)[C@]5(CCC[C@@H](C)O5)NC(=[N+]34)N2)O1.[Cl-]
[1]
  Selectivity: -50
[2]
  Selectivity: 50
[3]
  Selectivity: 100
[4]
  Selectivity: 200
[5]
  Selectivity: -250

From ChEMBL document CHEMBL1147463, “Synthesis and anticancer activity of side chain analogs of the crambescidin alkaloids” (2004)
